The target in the assay is CFTR-mediated chloride transport in human intestinal epithelial enteroid cells (Homo sapiens, UniProt P13569). In words: Membrane potential dye, Enteroid Assay A. Type of assay: cell-based. The following applies: for EC50: read-out: Ent. A EC50. Summed up:
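Membrane potential dye (20 μM methyl oxonol, with 30 μM CaCCinh-A01 and 30 μM Chicago Sky Blue) loaded 25 min at room temperature into ROCK-inhibitor-seeded human enteroid cells. Chloride-free stimulation buffer triggered transport, followed by 15 min fluorescence. % Activity relative to 3 μM/3 μM/300 nM triple-combination control.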

[1] abbreviates: enteroid cells incubated with test compound 18-24 hours, acute 10 μM forskolin and 300 nM N-[2,4-bis(1,1-dimethylethyl)-5-hydroxyphenyl]-1,4-dihydro-4-oxoquinoline-3-carboxamide.
Where [2] appears, read: percentage of chloride transport of triple combination control (3 μM N-[(6-amino-2-pyridyl)sulfonyl]-6-(3-fluoro-5-isobutoxy-phenyl)-2-[(4S)-2,2,4-trimethylpyrrolidin-1-yl]pyridine-3-carboxamide based).

Each structure is given as a SMILES string. Like-named read-outs stand apart in the source and are kept apart here. Where only a bound is given, the exact number is not on record here.

Chain of CFTR-mediated chloride transport in human intestinal epithelial enteroid cells (P13569 with tags, fused parts or gaps DEL508-508): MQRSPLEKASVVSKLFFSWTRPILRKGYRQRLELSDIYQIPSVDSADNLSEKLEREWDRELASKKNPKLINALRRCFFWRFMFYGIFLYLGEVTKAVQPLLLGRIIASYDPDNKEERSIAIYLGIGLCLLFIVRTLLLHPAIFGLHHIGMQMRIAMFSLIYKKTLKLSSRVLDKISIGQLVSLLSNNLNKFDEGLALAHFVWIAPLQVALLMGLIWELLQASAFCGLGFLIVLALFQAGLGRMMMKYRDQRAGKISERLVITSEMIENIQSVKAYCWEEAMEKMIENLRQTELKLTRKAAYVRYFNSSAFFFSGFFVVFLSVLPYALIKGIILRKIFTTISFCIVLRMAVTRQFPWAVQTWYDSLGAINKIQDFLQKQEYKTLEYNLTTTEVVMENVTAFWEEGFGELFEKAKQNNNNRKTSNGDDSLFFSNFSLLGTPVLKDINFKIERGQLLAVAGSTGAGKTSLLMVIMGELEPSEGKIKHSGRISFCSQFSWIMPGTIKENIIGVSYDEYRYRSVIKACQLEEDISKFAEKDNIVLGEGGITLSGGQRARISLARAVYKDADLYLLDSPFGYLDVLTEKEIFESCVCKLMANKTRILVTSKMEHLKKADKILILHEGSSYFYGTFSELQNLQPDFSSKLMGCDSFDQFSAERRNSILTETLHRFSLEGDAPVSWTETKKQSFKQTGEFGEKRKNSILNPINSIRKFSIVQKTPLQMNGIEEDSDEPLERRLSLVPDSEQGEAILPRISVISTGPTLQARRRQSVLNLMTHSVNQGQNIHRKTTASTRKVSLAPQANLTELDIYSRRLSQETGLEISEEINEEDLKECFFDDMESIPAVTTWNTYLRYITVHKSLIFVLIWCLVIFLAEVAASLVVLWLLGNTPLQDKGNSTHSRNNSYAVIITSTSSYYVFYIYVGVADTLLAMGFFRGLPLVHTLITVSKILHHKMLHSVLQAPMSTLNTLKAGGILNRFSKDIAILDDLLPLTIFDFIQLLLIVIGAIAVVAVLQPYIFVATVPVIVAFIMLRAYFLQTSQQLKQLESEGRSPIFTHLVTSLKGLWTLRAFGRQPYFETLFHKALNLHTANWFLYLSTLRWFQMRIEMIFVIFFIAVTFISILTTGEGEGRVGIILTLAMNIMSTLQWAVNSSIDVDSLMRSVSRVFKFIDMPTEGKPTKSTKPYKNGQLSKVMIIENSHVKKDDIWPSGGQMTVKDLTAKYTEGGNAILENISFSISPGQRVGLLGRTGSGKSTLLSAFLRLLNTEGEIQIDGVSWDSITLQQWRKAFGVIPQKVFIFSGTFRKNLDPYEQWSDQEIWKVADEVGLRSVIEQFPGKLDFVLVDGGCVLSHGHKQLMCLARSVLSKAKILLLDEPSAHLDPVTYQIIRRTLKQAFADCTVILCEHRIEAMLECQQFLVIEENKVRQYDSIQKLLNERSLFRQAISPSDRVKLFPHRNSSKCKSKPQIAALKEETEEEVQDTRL

The EC50 is the concentration needed to bring the measured effect to its halfway point. For `Cc1cccc(C)c1-c1cc2nc(n1)NS(=O)(=O)c1cccc(c1)C(=O)N1CCN(C(=O)C3CCCCC3)C[C@@H]1CO2` [Compound 168, (8R)-6-Cyclohexanecarbonyl-13-(2,6-dimethylphenyl)-10-oxa-17λ^6-thia-3,6,14,16,23-pentaazatetracyclo[16.3.1.111,15.03,8]tricosa-1(21),11,13,15(23),18(22),19-hexaene-2,17,17-trione], under setting [1], the EC50 is under 1 µM. The “Ent. A Max Activity (%)” value under setting [2] was “+++ (+++ is >60%)”. As to `Cc1cccc(C)c1-c1cc2nc(n1)NS(=O)(=O)c1cccc(c1)C(=O)N1CCN(Cc3ccccc3)CC1CO2` (centres unmarked) [Compound 169, 6-Benzyl-13-(2,6-dimethylphenyl)-10-oxa-17λ^6-thia-3,6,14,16,23-pentaazatetracyclo[16.3.1.111,15.03,8]tricosa-1(21),11,13,15(23),18(22),19-hexaene-2,17,17-trione], the EC50 under setting [1] was under 1 µM. Further, the “Ent. A Max Activity (%)” value under setting [2] was “+++ (+++ is >60%)”. Consider `Cc1cccc(C)c1-c1cc2nc(n1)NS(=O)(=O)c1cccc(c1)C(=O)N1CCNCC1C(C)O2` (centres unmarked) [Compound 172, 13-(2,6-dimethylphenyl)-9-methyl-10-oxa-17λ^6-thia-3,6,14,16,23-pentaazatetracyclo[16.3.1.111,15.03,8]tricosa-1(22),11,13,15(23),18,20-hexaene-2,17,17-trione], for which the “Ent. A Max Activity (%)” value under setting [2] is given as “+ (+ is <300%)”. In the case of `Cc1cccc(C)c1-c1cc2nc(n1)NS(=O)(=O)c1cccc(c1)C(=O)N1CCN(C(C)C)CC1C(Cc1ccccc1)O2` (centres unmarked) [Compound 174, 9-benzyl-13-(2,6-dimethylphenyl)-6-(propan-2-yl)-10-oxa-17λ^6-thia-3,6,14,16,23-pentaazatetracyclo[16.3.1.111,15.03,8]tricosa-1(22),11,13,15(23),18,20-hexaene-2,17,17-trione], for the setting “Enteroid Assay A”, the “Ent. A Max Activity (%)” value is recorded as “+++ (+++ is >600%)” and the EC50 is under 1 µM. With `Cc1cccc(C)c1-c1cc2nc(n1)NS(=O)(=O)c1cccc(c1)C(=O)N1CCNCC1C(Cc1ccccc1)O2` (centres unmarked) [Compound 176, 9-benzyl-13-(2,6-dimethylphenyl)-10-oxa-17λ^6-thia-3,6,14,16,23-pentaazatetracyclo[16.3.1.111,15.03,8]tricosa-1(22),11,13,15(23),18,20-hexaene-2,17,17-trione], for the setting “Enteroid Assay A”, the “Ent. A Max Activity (%)” value is given as “+ (+ is <30%)” and the EC50 lay in the range of 3 to 30 µM. In the case of `Cc1cccc(C)c1-c1cc2nc(n1)NS(=O)(=O)c1cccc(c1)C(=O)N1CCN(CCC(C)(C)C)C(CO2)C1` (centres unmarked) [Compound 177, 18-(3,3-Dimethylbutyl)-12-(2,6-dimethylphenyl)-15-oxa-8λ^6-thia-1,9,11,18,22-pentaazatetracyclo[15.3.1.13,7.110,14]tricosa-3(23),4,6,10(22),11,13-hexaene-2,8,8-trione], the EC50 under setting [1] was under 1 µM. Also, the “Ent. A Max Activity (%)” value under setting [2] is reported as “++ (++ is 30-60%)”.

For `Cc1cccc(C)c1-c1cc2nc(n1)NS(=O)(=O)c1cccc(c1)C(=O)N1CCN(Cc3ccccc3)C(CO2)C1` (centres unmarked) [Compound 178, 18-Benzyl-12-(2,6-dimethylphenyl)-15-oxa-8λ^6-thia-1,9,11,18,22-pentaazatetracyclo[15.3.1.13,7.110,14]tricosa-3,5,7(23),10(22),11,13-hexaene-2,8,8-trione], under setting [1], the EC50 is under 1 µM. Also, the “Ent. A Max Activity (%)” value under setting [2] is recorded as “++ (++ is 30-60%)”. For `Cc1cccc(C)c1-c1cc2nc(n1)NS(=O)(=O)c1cccc(c1)C(=O)N1Cc3cc(C(C)(C)C)ccc3C(C1)O2` (centres unmarked) [Compound 182, 20-tert-Butyl-12-(2,6-dimethylphenyl)-15-oxa-8λ^6-thia-1,9,11,25-tetraazapentacyclo[14.7.1.13,7.110,14.017,22]hexacosa-3,5,7(26),10,12,14(25),17,19,21-nonaene-2,8,8-trione], where the note is “Enteroid Assay A”, the “Ent. A Max Activity (%)” value is given as “+ (+ is <30%)”.
